In series [1] the target is T1, AbPYKS (Atropa belladonna, UniProt A0A3G4RHW3).
T1 construct: gene OGAS
The note with it: substrate inhibition constant, 25 mM potassium phosphate pH 8.0, 30 °C.

Series [2] addresses T1, AbPYKS. The note with it: apparent; 0.1 mM malonyl-CoA, 25 mM potassium phosphate pH 8.0, 30 °C.
For series [3], the target named is T2, AbCYP82M3 (Atropa belladonna, UniProt A0A3G4RHY7).
T2 construct: gene CYP82M3
The following applies: 1 mM NADPH, pH 7.0, ionic strength 0.05, 20% glycerol, 30 °C.

Series [4] has as its system CC(C)(COP(=O)(O)OP(=O)(O)OC[C@H]1O[C@@H](n2cnc3c(N)ncnc32)[C@H](O)[C@@H]1OP(=O)(O)O)[C@@H](O)C(=O)NCCC(=O)NCCSC(=O)CC(=O)O. Nature of the series: purified protein. The note with it: apparent, 0.05 mM N-methyl-Δ^1-pyrrolinium, 25 mM potassium phosphate pH 8.0, 30 °C.

The source of these data is PMC6290073, “Tropinone synthesis via an atypical polyketide synthase and P450-mediated cyclization” (Nature Communications, 2018).

Read-outs that look alike come from different tables or passages of the source.

T1 sequence (A0A3G4RHW3 1-392 limits assumed): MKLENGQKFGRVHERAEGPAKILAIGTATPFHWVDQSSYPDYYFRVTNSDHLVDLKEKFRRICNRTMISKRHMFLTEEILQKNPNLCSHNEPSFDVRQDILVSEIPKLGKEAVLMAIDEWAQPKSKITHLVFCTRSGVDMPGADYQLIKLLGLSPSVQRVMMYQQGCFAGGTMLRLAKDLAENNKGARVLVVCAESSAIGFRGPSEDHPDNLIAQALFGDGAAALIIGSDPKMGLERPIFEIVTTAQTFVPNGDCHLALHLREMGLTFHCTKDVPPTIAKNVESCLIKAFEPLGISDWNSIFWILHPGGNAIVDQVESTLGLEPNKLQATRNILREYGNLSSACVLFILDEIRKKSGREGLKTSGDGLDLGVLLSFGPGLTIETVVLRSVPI
T2 sequence (A0A3G4RHY7 1-519): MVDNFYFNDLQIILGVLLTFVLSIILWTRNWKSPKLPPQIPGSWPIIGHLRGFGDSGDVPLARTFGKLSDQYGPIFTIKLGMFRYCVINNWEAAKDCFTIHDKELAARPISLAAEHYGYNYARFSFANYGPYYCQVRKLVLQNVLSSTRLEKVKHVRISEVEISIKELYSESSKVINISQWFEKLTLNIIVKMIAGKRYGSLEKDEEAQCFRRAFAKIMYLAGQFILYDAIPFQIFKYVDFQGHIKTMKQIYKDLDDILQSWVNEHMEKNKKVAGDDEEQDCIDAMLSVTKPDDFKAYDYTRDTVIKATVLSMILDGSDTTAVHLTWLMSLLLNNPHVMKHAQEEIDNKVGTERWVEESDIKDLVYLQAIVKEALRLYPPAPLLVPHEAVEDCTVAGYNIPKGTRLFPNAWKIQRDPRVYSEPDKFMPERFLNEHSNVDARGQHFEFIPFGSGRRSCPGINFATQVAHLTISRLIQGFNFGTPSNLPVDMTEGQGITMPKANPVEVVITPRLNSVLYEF

The term Km denotes the concentration of substrate that gives half-maximal velocity. As to `C[N+]1=CCCC1` [compound 4, N-methyl-Δ^1-pyrrolinium], the “K i /” value in series [1] (0.1 mM malonyl-CoA) turned out to be 103 ± 16 µM. For the same molecule, in series [2], the Km is 10 ± 0.6 µM.
With `CN1CCCC1CC(=O)CC(=O)O` (racemic) [compound 5, 4-(1-methyl-2-pyrrolidinyl)-3-oxobutanoic acid], the Km in series [3] was determined as 631 ± 26 µM.
Consider `CC(C)(COP(=O)(O)OP(=O)(O)OC[C@H]1O[C@@H](n2cnc3c(N)ncnc32)[C@H](O)[C@@H]1OP(=O)(O)O)[C@@H](O)C(=O)NCCC(=O)NCCSC(=O)CC(=O)O` [Malonyl-CoA], for which, in series [1] (0.05 mM N-methyl-Δ^1-pyrrolinium), the “K i /” value came to 280 ± 0.9 µM.
A word on the Vmax: it is the rate approached at saturating substrate. As a reminder, the kcat is the number of substrate molecules converted per active site and unit of time at saturation. A word on the kcat/Km: it is the turnover number divided by the Michaelis constant. Take AbPYKS (Atropa belladonna): in series [4], the Km was found to be 12 ± 1 µM, the Vmax was 13.8 µmol/min/mg, the turnover number (kcat) is 10 ± 0.1 s⁻¹ and the kcat/Km is 848000 ± 90000 M⁻¹ s⁻¹.
